Measured values as given in US9024044B2, “Heteroarylcarboxylic acid ester derivative” (Ajinomoto Co., Inc., priority 2012, dated 2015).
Structures can show the parent of a compound that is named as a salt.

Columns and labels:
[1] = target: recombinant human enteropeptidase (Homo sapiens (Human), UniProt P98073); assay: Measurement of enteropeptidase inhibitory activity; format: biochemical; conditions: substrate Gly-Asp-Asp-Asp-Asp-Lys-β-Naphtylamide, Tris-HCl pH 8.0, Dixon plot
Method: Measurement of Enteropeptidase Inhibitory Activity
Using a 96 well plate (#3915, Costar), a test compound (25 μL), 400 mM Tris-HCl buffer (pH 8.0, 25 μL) and 0.5 mg/mL fluorescence enzyme substrate (Gly-Asp-Asp-Asp-Asp-Lys-β-Naphtylamide, 25 μL) were mixed, and recombinant human enteropeptidase (R&D Systems, Inc., 25 μL) was added. Using a fluorescence plate reader fmax (Molecular Devices, Inc.), the reaction rate was measured from the time-course changes at excitation wavelength 320 nm and fluorescence wavelength 405 nm. The Ki value was calculated from the concentration of the test compound, reciprocal of reaction rate, and Km value of the enzyme substrate, and by using Dixon plot.

human trypsin = human trypsin (Homo sapiens, UniProt P07477); assay: Measurement of trypsin inhibitory activity; format: biochemical; conditions: substrate Boc-Phe-Ser-Arg-AMC, Tris-HCl pH 8.0, Dixon plot
Method: Measurement of Trypsin Inhibitory Activity
Using a 96 well plate (#3915, Costar), a test compound (25 μL) was mixed with 20 μM fluorescence enzyme substrate (Boc-Phe-Ser-Arg-AMC, 50 μL) mixed with 200 mM Tris-HCl buffer (pH 8.0), and human trypsin (Sigma, 25 μL) was added. Using a fluorescence plate reader fmax (Molecular Devices, Inc.), the reaction rate was measured from the time-course changes at excitation wavelength 355 nm and fluorescence wavelength 460 nm. The Ki value was calculated from the concentration of the test compound, reciprocal of reaction rate, and Km value of the enzyme substrate, and by using Dixon plot.

Sequence of recombinant human enteropeptidase (P98073 whole entry): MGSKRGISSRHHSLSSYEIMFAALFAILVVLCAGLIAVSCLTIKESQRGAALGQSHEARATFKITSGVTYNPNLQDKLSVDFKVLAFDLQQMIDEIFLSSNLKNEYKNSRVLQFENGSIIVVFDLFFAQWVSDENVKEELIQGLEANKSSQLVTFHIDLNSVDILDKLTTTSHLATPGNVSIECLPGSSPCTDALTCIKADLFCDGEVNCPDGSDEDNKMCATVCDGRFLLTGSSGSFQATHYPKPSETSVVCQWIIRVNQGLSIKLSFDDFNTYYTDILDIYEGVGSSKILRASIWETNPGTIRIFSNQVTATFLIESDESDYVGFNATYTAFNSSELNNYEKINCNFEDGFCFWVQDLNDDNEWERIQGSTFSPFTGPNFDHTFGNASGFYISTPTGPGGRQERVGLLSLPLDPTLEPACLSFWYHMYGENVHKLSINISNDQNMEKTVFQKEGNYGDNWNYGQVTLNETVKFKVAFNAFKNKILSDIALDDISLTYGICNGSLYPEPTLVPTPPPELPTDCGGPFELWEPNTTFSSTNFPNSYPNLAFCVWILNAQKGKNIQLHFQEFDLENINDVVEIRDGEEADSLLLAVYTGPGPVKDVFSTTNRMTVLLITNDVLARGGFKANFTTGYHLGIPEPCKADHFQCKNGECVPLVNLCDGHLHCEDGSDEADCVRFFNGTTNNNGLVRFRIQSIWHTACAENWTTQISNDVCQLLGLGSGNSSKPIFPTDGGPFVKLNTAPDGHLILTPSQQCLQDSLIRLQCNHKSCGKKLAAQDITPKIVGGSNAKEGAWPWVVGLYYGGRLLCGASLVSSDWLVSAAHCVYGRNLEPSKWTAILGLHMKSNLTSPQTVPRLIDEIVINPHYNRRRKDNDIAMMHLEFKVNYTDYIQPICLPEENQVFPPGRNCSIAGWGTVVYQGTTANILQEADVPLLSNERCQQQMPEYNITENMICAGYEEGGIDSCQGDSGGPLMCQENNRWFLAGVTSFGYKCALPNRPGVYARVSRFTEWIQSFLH

Row | SMILES | Ki [1] | Ki (human trypsin)
1 | CN(CC(=O)O)C(=O)C(C)(C)Cc1ccc(C(=O)Oc2ccc(C(=N)N)cc2F)s1 [Compound 7] | 0.41 nM | 1.33 nM
2 | CC(C)(Cc1ccc(C(=O)Oc2ccc(C(=N)N)cc2F)s1)C(=O)Nc1ccc[nH]c1=O [Compound 40] | 6.66 nM | 4.54 nM
3 | CC(C)(Cc1ccc(C(=O)Oc2ccc(C(=N)N)cc2F)s1)C(=O)N[C@H]1CC[C@H](C(=O)O)CC1 [Compound 78] | 1.53 nM | 2.57 nM
4 | CCC(CC)(Cc1ccc(C(=O)Oc2ccc(C(=N)N)cc2F)s1)C(=O)N(C)CC(=O)O [Compound 21, N-{3-[5-(4-amidino-2-fluoro-phenoxycarbonyl)thiophen-2-yl]-2,2-diethylpropionyl}-sarcosine hydrochloride] | 0.88 nM | 1.76 nM
5 | CC(C)(Cc1ccc(C(=O)Oc2ccc(C(=N)N)cc2F)s1)C(=O)N[C@@H](C(=O)O)C1CCCCC1 [Compound 36] | 4.7 nM | 3.07 nM
6 | CC(C)(Cc1ccc(C(=O)Oc2ccc(C(=N)N)cc2F)s1)C(=O)N1CCC[C@H]1C(=O)O [Compound 8] | 0.87 nM | 1.69 nM
7 | CCC(CC)(Cc1ccc(C(=O)Oc2ccc(C(=N)N)cc2F)s1)C(=O)Nc1cc(C(=O)O)cc(C(=O)OC)c1 [Compound 67] | 3.73 nM | 4.4 nM
8 | CCC(CC)(Cc1ccc(C(=O)Oc2ccc(C(=N)N)cc2F)s1)C(=O)NCCC(=O)O [Compound 14] | 0.99 nM | 2.5 nM
9 | CC(C)(Cc1ccc(C(=O)Oc2ccc(C(=N)N)cc2F)s1)C(=O)Nc1cccnc1 [Compound 39] | 7.56 nM | 3.6 nM
10 | CCC(CC)(Cc1ccc(C(=O)Oc2ccc(C(=N)N)cc2F)s1)C(=O)N[C@@H](C)C(=O)O [Compound 27] | 0.73 nM | 1.67 nM
11 | CC(C)(Cc1ccc(C(=O)Oc2ccc(C(=N)N)cc2F)s1)C(=O)N1CC(C(=O)O)C1 [Compound 72] | 0.63 nM | 1.85 nM
12 | C=CCN(CC(=O)O)C(=O)C(C)(C)Cc1ccc(C(=O)Oc2ccc(C(=N)N)cc2F)s1 [Compound 5] | 0.24 nM | 0.5 nM
13 | CC(C)(Cc1ccc(C(=O)Oc2ccc(C(=N)N)cc2F)s1)C(=O)NC(C)(C)C(=O)O [Compound 6] | 0.69 nM | 0.95 nM
14 | CCC(CC)(Cc1ccc(C(=O)Oc2ccc(C(=N)N)cc2F)s1)C(=O)N[C@@H](CO)C(=O)O [Compound 11, N-{3-[5-(4-amidino-2-fluoro-phenoxycarbonyl)thiophen-2-yl]-2,2-diethylpropionyl}-L-serine hydrochloride] | 0.41 nM | 1.87 nM
15 | CCC(CC)(Cc1ccc(C(=O)Oc2ccc(C(=N)N)cc2F)s1)C(=O)O [Compound 18, 3-[5-(4-amidino-2-fluorophenoxycarbonyl)thiophen-2-yl]-2,2-diethylpropanoic acid trifluoroacetic acid salt] | 1.24 nM | 2.49 nM
16 | CC(C)(Cc1ccc(C(=O)Oc2ccc(C(=N)N)cc2F)s1)C(=O)Nc1cc(C(=O)O)ccc1C(=O)O [Compound 75] | 0.39 nM | 3.72 nM
17 | CCC(CC)(Cc1ccc(C(=O)Oc2ccc(C(=N)N)cc2F)s1)C(=O)N[C@H](CO)C(=O)O [Compound 12] | 0.94 nM | 1.78 nM
18 | CC(C)(Cc1ccc(C(=O)Oc2ccc(C(=N)N)cc2F)s1)C(=O)N[C@@H](C(=O)O)c1ccccc1 [Compound 38] | 0.97 nM | 1.45 nM
19 | CC(C)(Cc1ccc(C(=O)Oc2ccc(C(=N)N)cc2F)s1)C(=O)N1CC(F)(F)C1 [Compound 46] | 5.27 nM | 3.89 nM
20 | CCC(CC)(Cc1ccc(C(=O)Oc2ccc(C(=N)N)cc2F)s1)C(=O)N[C@H](C(=O)O)C(C)O (some centres unmarked) [Compound 15] | 0.84 nM | 1.74 nM
21 | CC(C)(Cc1ccc(C(=O)Oc2ccc(C(=N)N)cc2F)s1)C(=O)NC(CCC(=O)O)(CCC(=O)O)CCC(=O)O [Compound 58] | 0.71 nM | 1.59 nM
22 | CCC(CC)(Cc1ccc(C(=O)Oc2ccc(C(=N)N)cc2F)s1)C(=O)Nc1cc(C(=O)O)cc(C(=O)O)c1 [Compound 66] | 0.71 nM | 1.58 nM
23 | CC(C)(Cc1ccc(C(=O)Oc2ccc(C(=N)N)cc2F)s1)C(=O)N1C[C@@H]1C(=O)O [Compound 54] | 1.76 nM | 1.53 nM
24 | CC(C)(Cc1ccc(C(=O)Oc2ccc(C(=N)N)cc2F)s1)C(=O)Nc1ccccc1C(=O)O [Compound 73] | 2.41 nM | 3.65 nM
25 | CC(C)(Cc1ccc(C(=O)Oc2ccc(C(=N)N)cc2F)s1)C(=O)NCCc1nnn[nH]1 [Compound 64] | 0.53 nM | 1.6 nM

Row | SMILES | Ki [1] | Ki (human trypsin)
26 | CCC(CC)(Cc1ccc(C(=O)Oc2ccc(C(=N)N)cc2F)s1)C(=O)N[C@@H](CCC(N)=O)C(=O)O [Compound 42] | 1.69 nM | 3.88 nM
27 | CC(C)(Cc1ccc(C(=O)Oc2ccc(C(=N)N)cc2F)s1)C(=O)N1C[C@H]1C(=O)O [Compound 61] | 1.13 nM | 0.96 nM
28 | CCC(CC)(Cc1ccc(C(=O)Oc2ccc(C(=N)N)cc2F)s1)C(=O)NC1(C(=O)O)CC1 [Compound 79] | 1.12 nM | 2.19 nM
29 | CC(C)(Cc1ccc(C(=O)Oc2ccc(C(=N)N)cc2F)s1)C(=O)N1CC[C@@H](C(=O)O)C1 [Compound 33] | 1.02 nM | 2 nM
30 | CCC(CC)(Cc1ccc(C(=O)Oc2ccc(C(=N)N)cc2F)s1)C(=O)N1CCC[C@H]1C(=O)O [Compound 17] | 1.69 nM | 6.38 nM
31 | CCC(CC)(Cc1ccc(C(=O)Oc2ccc(C(=N)N)cc2F)s1)C(=O)N[C@@H](CC(=O)O)C(=O)O [Compound 19] | 0.33 nM | 0.82 nM
32 | CC(C)[C@H](NC(=O)C(C)(C)Cc1ccc(C(=O)Oc2ccc(C(=N)N)cc2F)s1)C(=O)O [Compound 9, N-{3-[5-(4-amidino-2-fluoro-phenoxycarbonyl)thiophen-2-yl]-2,2-dimethylpropionyl}-1-valine hydrochloride] | 0.79 nM | 2.02 nM
33 | CCC(CC)(Cc1ccc(C(=O)Oc2ccc(C(=N)N)cc2F)s1)C(=O)NCCCCCC(=O)O [Compound 71] | 4.97 nM | 8.01 nM
34 | CC(C)(Cc1ccc(C(=O)Oc2ccc(C(=N)N)cc2F)s1)C(=O)Nc1ccc(C(=O)O)c(C(=O)O)c1 [Compound 68] | 0.24 nM | 0.21 nM
35 | N=C(N)c1ccc(OC(=O)c2ccc(CC3(C(=O)N[C@@H](CC(=O)O)C(=O)O)CCC3)s2)c(F)c1 [Compound 1, N-[1{5-(4-amidino-2-fluorophenoxycarbonyl)thiophen-2-ylmethyl}-cyclobutylcarbonyl]-1-aspartic acid trifluoroacetic acid salt] | 0.14 nM | 0.61 nM
36 | CC(C)(Cc1ccc(C(=O)Oc2ccc(C(=N)N)cc2F)s1)C(=O)N1CCc2ccc(C(=O)O)cc2C1 [Compound 50] | 3.46 nM | 3.49 nM
37 | CC(C)(Cc1ccc(C(=O)Oc2ccc(C(=N)N)cc2F)s1)C(=O)N1CCC(C(=O)O)CC1 [Compound 26] | 1.33 nM | 3.1 nM
38 | CCC(CC)(Cc1ccc(C(=O)Oc2ccc(C(=N)N)cc2F)s1)C(=O)N[C@H](CC(=O)O)C(=O)O [Compound 25] | 0.26 nM | 1.04 nM
39 | CC(C)(Cc1ccc(C(=O)Oc2ccc(C(=N)N)cc2F)s1)C(=O)N[C@@H](C(=O)O)c1ccc(O)cc1 [Compound 69] | 0.72 nM | 1.14 nM
40 | CCC(CC)(Cc1ccc(C(=O)Oc2ccc(C(=N)N)cc2F)s1)C(=O)NCCC[C@H](N)C(=O)O [Compound 52] | 5.53 nM | 5.78 nM
41 | CCC(CC)(Cc1ccc(C(=O)Oc2ccc(C(=N)N)cc2F)s1)C(=O)N1CCC[C@@H]1C(=O)O [Compound 22] | 1 nM | 3.57 nM
42 | COc1ncccc1NC(=O)C(C)(C)Cc1ccc(C(=O)Oc2ccc(C(=N)N)cc2F)s1 [Compound 51] | 3.75 nM | 1.87 nM
43 | COc1ccc(NC(=O)C(C)(C)Cc2ccc(C(=O)Oc3ccc(C(=N)N)cc3F)s2)cn1 [Compound 45] | 4.13 nM | 3.36 nM
44 | CCC(CC)(Cc1ccc(C(=O)Oc2ccc(C(=N)N)cc2F)s1)C(=O)Nc1ccc(CC(=O)O)cc1 [Compound 48] | 2.41 nM | 3.35 nM
45 | N=C(N)c1ccc(OC(=O)c2ccc(CC3(C(=O)N[C@@H](CC(=O)O)C(=O)O)CCCC3)s2)c(F)c1 [Compound 2, N-{1-[5-(4-amidino-2-fluorophenoxycarbonyl)thiophen-2-ylmethyl]-2-cyclopentylcarbonyl}-1-aspartic acid trifluoroacetic acid salt] | 0.73 nM | 4.1 nM
46 | CC(C)(Cc1ccc(C(=O)Oc2ccc(C(=N)N)cc2F)s1)C(=O)Nc1cc(C(=O)O)cc(C(=O)O)c1 [Compound 59] | 0.31 nM | 0.49 nM
47 | CCCN(CC(=O)O)C(=O)C(CC)(CC)Cc1ccc(C(=O)Oc2ccc(C(=N)N)cc2F)s1 [Compound 20] | 2.61 nM | 7.91 nM
48 | CC(C)(Cc1ccc(C(=O)Oc2ccc(C(=N)N)cc2F)s1)C(=O)N[C@H](C(=O)O)C1CCCCC1 [Compound 35] | 2.56 nM | 3.04 nM
49 | CC(C)(Cc1ccc(C(=O)Oc2ccc(C(=N)N)cc2F)s1)C(=O)N[C@H]1CC[C@@H](C(=O)O)CC1 [Compound 70] | 1.11 nM | 1.7 nM
